Results: patent US20170266186A1, “USE OF INHIBITORS OF BRUTON'S TYROSINE KINASE (BTK)” (Pharmacyclics LLC, priority 2011, published 2017)

Experiments:
cell lines = assay: combination of PCI-32765 with other drugs in cell lines; type: cell-based
DLBCL xenograft = assay: combination drug testing in a DLBCL xenograft; type: in vivo; conditions: initial experiment in a DLBCL xenograft

Structure (SMILES)	interaction with PCI-32765 in combination (cell lines)	interaction with PCI-32765 in combination (DLBCL xenograft)
CC(=O)O[C@H]1C(=O)[C@@]2(C)[C@H]([C@H](OC(=O)c3ccccc3)[C@]3(O)C[C@H](OC(=O)[C@H](O)[C@@H](NC(=O)c4ccccc4)c4ccccc4)C(C)=C1C3(C)C)[C@]1(OC(C)=O)CO[C@@H]1C[C@@H]2O [taxol]	additivity	–
COc1cccc2c1C(=O)c1c(O)c3c(c(O)c1C2=O)C[C@@](O)(C(=O)CO)C[C@@H]3O[C@H]1C[C@H](N)[C@H](O)[C@H](C)O1 [doxorubicin]	additivity	–
N.N.O=C([O-])C1(C(=O)[O-])CCC1.[Pt+2] [carboplatin]	additivity	–
COc1cc(Nc2ncc(F)c(Nc3ccc4c(n3)NC(=O)C(C)(C)O4)n2)cc(OC)c1OC [Compound R-406]	weak synergy	–
Nc1ccn([C@@H]2O[C@H](CO)[C@@H](O)C2(F)F)c(=O)n1 [gemcitabine]	weak synergy	–
CN(C)Cc1c(C(=O)NCCOc2ccc(C(=O)NO)cc2)oc2ccccc12 [3-((dimethylamino)methyl)-N-(2-(4-(hydroxycarbamoyl)phenoxy)ethyl)benzofuran-2-carboxamide]	weak synergy	–
CO[C@H]1C[C@@H]2CC[C@@H](C)[C@@](O)(O2)C(=O)C(=O)N2CCCC[C@H]2C(=O)O[C@H]([C@H](C)C[C@@H]2CC[C@@H](OC(=O)C(C)(CO)CO)[C@H](OC)C2)CC(=O)[C@H](C)/C=C(\C)[C@@H](O)[C@@H](OC)C(=O)[C@H](C)C[C@H](C)/C=C/C=C/C=C/1C [temsirolimus]	additivity	–
Nc1cccc2c1CN(C1CCC(=O)NC1=O)C2=O (stereo not shown) [lenalidomide]	weak synergy	–
Cn1c(CCCC(=O)O)nc2cc(N(CCCl)CCCl)ccc21 [bendamustine]	weak synergy	–
CC[C@]1(O)C[C@H]2CN(CCc3c([nH]c4ccccc34)[C@@](C(=O)OC)(c3cc4c(cc3OC)N(C=O)[C@H]3[C@@](O)(C(=O)OC)[C@H](OC(C)=O)[C@]5(CC)C=CCN6CC[C@]43[C@@H]65)C2)C1 [vincristine]	additivity	–
CNC(=O)c1cc(Oc2ccc(NC(=O)Nc3ccc(Cl)c(C(F)(F)F)c3)cc2)ccn1 [sorafenib]	weak synergy	–
CC(C)C[C@H](NC(=O)[C@H](Cc1ccccc1)NC(=O)c1cnccn1)B(O)O [bortezomib]	weak synergy	greater than additivity
